Tested on: Human Cav2.3 channel
Assay: Human Cav2.3 channel calcium-influx assay
Format: cell-based
Conditions: Fluo8 fluorescence, HEK-293 T-Rex/Kir2.1/Cav2.3e cells, without pluronic acid
Protocol: HEK-293 T-Rex cells were transfected with pcDNA3.1-Kir2.1 to generate a stable cell line. After antibiotic selection, the obtained stable pools were analysed using FLIPR^TETRA (membrane potential assay), and a limiting dilution was performed and a HEK-293 T-Rex/Kir2.1 clone was selected. The clone was transfected with pcDNA3.1-Cav2.3e and pBud-Cav-β4-α2δ1 to generate a stable cell line where the Cav2.3e expression is inducible. After antibiotic selection, functional clone pool analysis and two successive limiting dilutions, the final clone underwent a qPCR analysis and a biophysical and pharmacological validation using patch-clamp.
A compound plate, containing 10 test compounds in eight-points dose response with n=4, was prepared. Test compounds dose response curves were prepared in automated fashion in 100% DMSO at CyBio Felix and starting from a stock solution in 100% DMSO; a defined volume was serially moved into destination wells pre-filled with the desired DMSO volume; stock solution concentration volumes were dependent on the final compounds concentrations to be tested and the final DMSO content used in the assay. For the assay test compounds dose response curves ranged from 30 μM and half log dilution with 0.3% final DMSO. In order to obtain the 8-points dose response curve all the concentrations were created by starting from a 10 mM DMSO stock solution and then moving 9.5 μL into a destination well pre-filled with 20.5 μL of 100% DMSO and repeating this step seven times. This initial step was done into 96 MTP plates, 10 compounds/plate. One 384 MTP was then reformatted to contain all the 10 compounds at 8 concentrations, quadruplicate data points. This so obtained 384 MTP compound plate served as source plate in a “mother to child” process with a CyBi®-Well dispenser in which 0.7 μL of compounds were moved into a destination plate pre-filled with 57.6 μL of Tyrode's buffer 0 mM K+, thus obtaining 4× concentrated compounds solution. In columns 1-2 and 23-24 the control wells were added. Both “source” compound plate and “destination” compound plate were barcoded and a relationship between the two plates was thus generated.
The day before the experiment, cells were detached by gentle wash with DPBS, followed by 5 min incubation at 37° C. with Trypsin solution. Detached cells were diluted with OptiMEM+Doxycycline at 0.2 μg/mL, counted and plated in Poly-D-Lysine coated black/clear bottom (15.000 c/well in 20 μl/well) by the use of a MATRIX WellMate dispenser. Plates were placed into a humidified incubator at 37° C. with 5% CO2 until the experimental day. 24 h after seeding 10 μL/well of 1.5× Fluo8 NW dye solution prepared in Tyrode's buffer 0 mM K* were added on top of the seeding medium. Cell plates were incubated for 40-60 min at RT in the dark. We then Injected off-line 10 μL/well of test compounds and controls 4× concentrated in Tyrode's Buffer 0 mM K+ with the CyBi®-Well instrument. Cell plates were incubated 3 minutes at RT. Finally, we injected 20 μL/well of 3× concentrated activator solution (K20-Na130-Ca2 buffer: 20 mM KCl, 130 mM NaCl, 2 mM CaCl2, 10 mM HEPES, 10 mM Glucose, final concentrations, prepared starting from “K0-Na150-Ca2” and “K150-Na0-Ca2” buffers) at FDSS7000EX instrument and read emitted fluorescence for 130 seconds.
Data analysis was performed with Genedata Screener® software and reported compounds activity as % effect in relation to the normalization standards. The Kinetic Response Value (KRV) is calculated as follows:
KRV=Maximal fluorescence recorded from second 5 to second 130 minus baseline fluorescence, computed as average from second 1 to second 2, of the kinetic trace. The KRV was normalized versus Neutral Controls and Inhibitor Controls in order to obtain the Activity[%] for each well. […] Therefore, the compound activity values were scaled (based on the two references) to a common range (two-point normalization). […]

CCN([C@@H](c1ccccc1C(F)(F)F)C(F)(F)F)S(=O)(=O)c1cncc(C#N)c1 [Example 247, (S)-5-cyano-N-ethyl-N-(2,2,2-trifluoro-1-(2-(trifluoromethyl)phenyl)ethyl)pyridine-3-sulfonamide]
Cav2.3 (pIC50): 5.11

CCN(C(c1ccc(F)cc1)C(F)(F)F)S(=O)(=O)c1ccc(C#N)s1 (centres unmarked) [Example 3, 5-cyano-N-ethyl-N-(2,2,2-trifluoro-1-(4-fluorophenyl)ethyl)thiophene-2-sulfonamide]
Cav2.3 (pIC50): 6.31

CCN(C(c1cccc(F)c1)C(F)(F)F)S(=O)(=O)c1cncc(C#N)c1 (centres unmarked) [Example 110, 5-Cyano-N-ethyl-N-(2,2,2-trifluoro-1-(3-fluorophenyl)ethyl)pyridine-3-sulfonamide]
Cav2.3 (pIC50): 7.11

CCN([C@H](c1ccc(F)cc1)C(F)(F)F)S(=O)(=O)c1ccn2cnnc2c1 [Example 138, (R)—N-ethyl-N-(2,2,2-trifluoro-1-(4-fluorophenyl)ethyl)-[1,2,4]triazolo[4,3-a]pyridine-7-sulfonamide]
Cav2.3 (pIC50): 6.78

CCN(C(c1ccc(F)cc1)C(F)(F)F)S(=O)(=O)c1ccc(C2=CCOCC2)s1 (centres unmarked) [Example 87, 5-(3,6-Dihydro-2H-pyran-4-yl)-N-ethyl-N-(2,2,2-trifluoro-1-(4-fluorophenyl)ethyl)thiophene-2-sulfonamide]
Cav2.3 (pIC50): 5.50

CCN([C@@H](c1ccccc1OC)C(F)(F)F)S(=O)(=O)c1cncc(C#N)c1 [Example 108, (S)-5-cyano-N-ethyl-N-(2,2,2-trifluoro-1-(2-methoxyphenyl)ethyl)pyridine-3-sulfonamide]
Cav2.3 (pIC50): 4.30

CCN([C@@H](c1ccc(F)cc1)C(F)(F)F)S(=O)(=O)c1ccc(F)s1 [Example 15, (S)—N-ethyl-5-fluoro-N-(2,2,2-trifluoro-1-(4-fluorophenyl)ethyl)thiophene-2-sulfonamide]
Cav2.3 (pIC50): 4.94

CCN(C(c1ccc(OC)cc1)C(F)(F)F)S(=O)(=O)C1CCOCC1 (centres unmarked) [Example 124, N-ethyl-N-(2,2,2-trifluoro-1-(4-methoxyphenyl)ethyl)tetrahydro-2H-pyran-4-sulfonamide]
Cav2.3 (pIC50): 6.11

CCN([C@@H](c1cccc(OC)c1)C(F)(F)F)S(=O)(=O)c1cncc(C#N)c1 [Example 73, (S)-5-Cyano-N-ethyl-N-(2,2,2-trifluoro-1-(3-methoxyphenyl)ethyl)pyridine-3-sulfonamide]
Cav2.3 (pIC50): 5.50

CCN(C(c1ccc(F)cc1)C(F)(F)F)S(=O)(=O)c1cncc(C#N)c1 (centres unmarked) [Example 26, 5-cyano-N-ethyl-N-(2,2,2-trifluoro-1-(4-fluorophenyl)ethyl)pyridine-3-sulfonamide]
Cav2.3 (pIC50): 7.49

COc1cc(S(=O)(=O)N(C)[C@H](c2ccc(Cl)cc2)C(F)(F)F)cnn1 [Example 229, (R)—N-(1-(4-chlorophenyl)-2,2,2-trifluoroethyl)-6-methoxy-N-methylpyridazine-4-sulfonamide]
Cav2.3 (pIC50): 6.93

CN([C@H](c1ccc(F)cc1)C(F)(F)F)S(=O)(=O)c1ccc2c(c1)OC(F)(F)O2 [Example 163, (R)-2,2-difluoro-N-methyl-N-(2,2,2-trifluoro-1-(4-fluorophenyl)ethyl)benzo[d][1,3]dioxole-5-sulfonamide]
Cav2.3 (pIC50): 5.76

CCN([C@H](c1ccc(F)cc1)C(F)(F)F)S(=O)(=O)c1ccc(N2CCOCC2)s1 [Example 90, (R)—N-ethyl-5-morpholino-N-(2,2,2-trifluoro-1-(4-fluorophenyl)ethyl)thiophene-2-sulfonamide]
Cav2.3 (pIC50): 6.20

CN([C@@H](c1ccc(F)cc1)C(F)(F)F)S(=O)(=O)c1ccc(C#N)s1 [Example 7, (S)-5-cyano-N-methyl-N-(2,2,2-trifluoro-1-(4-fluorophenyl)ethyl)thiophene-2-sulfonamide]
Cav2.3 (pIC50): 5.44

CCN(C(c1ccc(F)cc1)C(F)(F)F)S(=O)(=O)c1ccc(F)s1 (centres unmarked) [Example 14, N-ethyl-5-fluoro-N-(2,2,2-trifluoro-1-(4-fluorophenyl)ethyl)thiophene-2-sulfonamide]
Cav2.3 (pIC50): 5.64

CN([C@@H](c1ccc(F)cc1)C(F)(F)F)S(=O)(=O)C1CCOCC1 [Example 131, (S)—N-methyl-N-(2,2,2-trifluoro-1-(4-fluorophenyl)ethyl)tetrahydro-2H-pyran-4-sulfonamide]
Cav2.3 (pIC50): 5.12

CCN([C@@H](c1ccc(F)cc1)C(F)(F)F)S(=O)(=O)c1cncc(N2CCOCC2)c1 [Example 95, (S)—N-ethyl-5-morpholino-N-(2,2,2-trifluoro-1-(4-fluorophenyl)ethyl)pyridine-3-sulfonamide]
Cav2.3 (pIC50): 5.62

CN([C@H](c1ccc(C(F)(F)F)cc1)C(F)(F)F)S(=O)(=O)c1ccc2nccn2c1 [Example 234, (R)—N-methyl-N-(2,2,2-trifluoro-1-(4-(trifluoromethyl)phenyl)ethyl)imidazo[1,2-a]pyridine-6-sulfonamide]
Cav2.3 (pIC50): 6.38

CCN([C@H](c1ccccc1F)C(F)(F)F)S(=O)(=O)c1cncc(C#N)c1 [Example 116, (R)-5-Cyano-N-ethyl-N-(2,2,2-trifluoro-1-(2-fluorophenyl)ethyl)pyridine-3-sulfonamide]
Cav2.3 (pIC50): 5.81

CN([C@H](c1ccc(Cl)cc1)C(F)F)S(=O)(=O)c1cncc(C#N)c1 [Example 206, (R)—N-(1-(4-chlorophenyl)-2,2-difluoroethyl)-5-cyano-N-methylpyridine-3-sulfonamide]
Cav2.3 (pIC50): 6.60

COc1ccc(C(N(C)S(=O)(=O)C2CCOCC2)C(F)(F)F)cc1 (centres unmarked) [Example 125, N-methyl-N-(2,2,2-trifluoro-1-(4-methoxyphenyl)ethyl)tetrahydro-2H-pyran-4-sulfonamide]
Cav2.3 (pIC50): 5.37

CCN(C(c1ccc(F)cc1)C(F)(F)F)S(=O)(=O)c1cncc(N2CCCC2)c1 (centres unmarked) [Example 94, N-ethyl-5-(pyrrolidin-1-yl)-N-(2,2,2-trifluoro-1-(4-fluorophenyl)ethyl)pyridine-3-sulfonamide]
Cav2.3 (pIC50): 5.85

CCN([C@H](c1ccc(F)cc1)C(F)(F)F)S(=O)(=O)c1ccc2cnn(C)c2c1 [Example 160, (R)—N-ethyl-1-methyl-N-(2,2,2-trifluoro-1-(4-fluorophenyl)ethyl)-1H-indazole-6-sulfonamide]
Cav2.3 (pIC50): 6.06

Cc1ccc([C@@H](N(C)S(=O)(=O)c2cncnc2)C(F)(F)F)cc1 [Example 226, (R)—N-methyl-N-(2,2,2-trifluoro-1-(p-tolyl)ethyl)pyrimidine-5-sulfonamide]
Cav2.3 (pIC50): 6.79

CCN([C@@H](c1ccc(F)cc1)C(F)(F)F)S(=O)(=O)c1cncnc1 [Example 59, (S)—N-ethyl-N-(2,2,2-trifluoro-1-(4-fluorophenyl)ethyl)pyrimidine-5-sulfonamide]
Cav2.3 (pIC50): 5.21

CCN(C(c1ccc(C)cc1)C(F)(F)F)S(=O)(=O)c1cncc(C#N)c1 (centres unmarked) [Example 104, 5-Cyano-N-ethyl-N-(2,2,2-trifluoro-1-(p-tolyl)ethyl)pyridine-3-sulfonamide]
Cav2.3 (pIC50): 7.24

CCN([C@@H](c1ccc(F)cc1)C(F)(F)F)S(=O)(=O)c1csc(C#N)c1 (stereo in doubt) [Example 44, 5-cyano-N-ethyl-N-(2,2,2-trifluoro-1-(4-fluorophenyl)ethyl)thiophene-3-sulfonamide]
Cav2.3 (pIC50): 5.23

CCN(C(c1ccccc1C)C(F)(F)F)S(=O)(=O)c1cncc(C#N)c1 (centres unmarked) [Example 86, 5-cyano-N-ethyl-N-(2,2,2-trifluoro-1-(o-tolyl)ethyl)pyridine-3-sulfonamide]
Cav2.3 (pIC50): 5.95

CCN([C@H](c1cccc(F)c1)C(F)(F)F)S(=O)(=O)c1cncc(C#N)c1 [Example 111, (R)-5-Cyano-N-ethyl-N-(2,2,2-trifluoro-1-(3-fluorophenyl)ethyl)pyridine-3-sulfonamide]
Cav2.3 (pIC50): 7.63

Source: US20250115569A1, “SULFONAMIDE COMPOUNDS FOR THE TREATMENT OF NEUROLOGICAL CONDITIONS” (LARIO THERAPEUTICS LIMITED, priority 2021, published 2025)
